Reference: patent publication US11865157B2, “Compositions and methods of targeting cancer stem cells” (University of Houston System, priority 2016, dated 2024)
Numbered stars: 1 amine (or outer) side, 2 acyl side, 3 side chain; on linkers, the order of the positions; unused ones are H or OH. Square brackets hold non-standard residues; d marks the D form. Peptide text beside a SMILES is read from it. ξ: configuration not given here. Gly(N-piperonyl) = O=C(O)CNCc1ccc2c(c1)OCO2; X1 = CC(c1ccccc1)N(CC(=O)[*:2])[*:1]; Nlys = NCCCCNCC(=O)O; ξK = NCCCCC(N)C(=O)O; ξM = CSCCC(N)C(=O)O; Nme = COCCNCC(=O)O

Legend:
Assay type in all cases: cell-based
ALDH+ H358 CSCs = assay: On-bead binding of sorted ALDH+ and ALDH− H358 cells to PCS2-carrying beads
Description: On-bead binding assay: 50 mg of peptoid-carrying tentagel beads or 1.3×10^6 of peptoid-carrying magnetic beads were equilibrated in 2 mL RPMI containing 5% FBS and 3% BSA (Sigma) for 1 hour by shaking. The beads can then be equilibrated with 5×10^6 of each cancer cell type listed above in 2 mL RPMI containing 5% FBS and 1% BSA at room temperature for 15-60 minutes for binding. The cell-bound beads are then pulled down with a magnet and washed with RPMI to cleanly harvest bound cells. Unbound cells were collected separately for further confirmations.
To confirm the binding specificity of PCS2 to CSCs, sorted ALDH+ H358 CSCs (red stained) and ALDH− H358 cells (green stained) were exposed to PCS2-carrying beads. […] The same assay was repeated after allowing these CSC population to grow for 2 weeks, where by then the CSC percentage in the ALDH+ sorted population became low, the number of cells bound was very low (FIG. 4E), indicating PCS2 recognizes a unique target specific for CSCs, but not other cancer cells.

H358 and HCC4017 cells = assay: ALDEFluor staining of PCS2-bound and PCS2-unbound fractions
Description: To confirm that the peptoid-bound fraction was CSCs, a subset of PCS2-bound and PCS2-unbound fractions from H358 cells were generated and stained with the ALDEFLuor kit, which produces green fluorescence when the ALDH protein is active in a cell, and DAPI, and then analyzed them under a fluorescence microscope. […] An equal number of PCS2-bead sorted cells from the H358 and HCC4017 cell lines were also treated with the Aldefluor kit and their relative fluorescence was evaluated using a spectrophotometer (FIG. 7B & C).

H358 cells = assay: Colony formation assay of bead-bound, unbound and unsorted fractions; conditions: 2 weeks of growth, crystal violet
Description: (§1) A colony formation assay was performed on the untreated H358 cells and PCS2-bound and PCS2-unbound fractions to further confirm that the cells bound by PCS2 were CSCs. About 500 cells from each of the three fractions were plated into […] wells and grown for 2 weeks. The resulting colonies were then stained with crystal violet.
as §1, with “300-500” for “500”, “cell group” for “the three fractions”, “weeks or until colonies were visible by eye.” for “weeks.”, “violet for approximately 5 minutes and colonies were counted using the MOESM software program, and confirmed though microscopic counting.” for “violet.”
It was determined that the presence of plectin contributes to colony formation and wound healing potential of H358 cells. Plectin antibody-coated magnetic-bead bound fractions form a higher number of colonies compared to unbound and unseparated fraction in the clonogenicity assay in H358 cells The clonogenecity after plectin knockdown was then tested in H358, H460, and H2073 cells (FIG. 25C, 25D). Knockdown of plectin decreases colony formation in H358, H460 and H2073 cells. Knockdown of plectin leads to a decrease in mobility and scratch healing in H358 cells. […]

COCCNCC(=O)N(CCCCN)CC(=O)N(CC(=O)N(CC(=O)N(CCCCN)CC(=O)NC(CCCCN)C(=O)N[C@H](CCCCN)C(=O)NC(CCSC)C(N)=O)C(C)c1ccccc1)Cc1ccc2c(c1)OCO2 (some centres unmarked) [PCS2] (H-[Nme][Nlys][Gly(N-piperonyl)][X1][Nlys][ξK][dK][ξM]-NH2)
number of cells bound to PCS2-beads (ALDH+ H358 CSCs; ALDH+ sorted population after 2 weeks of growth): very low
binding of PCS2-beads to sorted ALDH+ (red) vs ALDH− (green) H358 cells (ALDH+ H358 CSCs; freshly sorted cells): only bound significantly to the red CSCs
ALDEFluor green fluorescence of PCS2-bound fraction (H358 and HCC4017 cells; H358, fluorescence microscope, vs unbound or untreated fractions): significantly stronger green fluorescence
relative ALDEFluor fluorescence of PCS2-bead sorted cells (H358 and HCC4017 cells; H358 and HCC4017, spectrophotometer): fluorescence was higher in bound cells
number of colonies from bead-bound fraction vs unbound or unsorted fractions (H358 cells): significantly higher number of colonies
